Data as given in PubChem BioAssay (NCI).
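Five concentrations, 48 hours, 96-well plates. The concentration for full growth arrest is given as TGI.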

Columns and labels:
Assay in all cases: DTP human tumour cell line panel, 48 h
786-0 renal = test system: 786-0 renal
A498 renal = test system: A498 renal
A549 NSCLC = test system: A549 NSCLC
ACHN renal = test system: ACHN renal
BT-549 breast = test system: BT-549 breast
CAKI-1 renal = test system: CAKI-1 renal
CCRF-CEM leukemia = test system: CCRF-CEM leukemia
COLO 205 colon = test system: COLO 205 colon
DU-145 prostate = test system: DU-145 prostate
EKVX NSCLC = test system: EKVX NSCLC
HCC-2998 colon = test system: HCC-2998 colon
HCT-116 colon = test system: HCT-116 colon
HCT-15 colon = test system: HCT-15 colon
HL-60(TB) leukemia = test system: HL-60(TB) leukemia
HOP-62 NSCLC = test system: HOP-62 NSCLC
HOP-92 NSCLC = test system: HOP-92 NSCLC
HS 578T breast = test system: HS 578T breast
HT29 colon = test system: HT29 colon
IGROV1 ovarian = test system: IGROV1 ovarian
KM12 colon = test system: KM12 colon
LOX IMVI melanoma = test system: LOX IMVI melanoma
M14 melanoma = test system: M14 melanoma
MALME-3M melanoma = test system: MALME-3M melanoma
MCF7 breast = test system: MCF7 breast
MDA-MB-231 breast = test system: MDA-MB-231 breast
MDA-MB-435 = test system: MDA-MB-435
MDA-N = test system: MDA-N
NCI-H226 lung = test system: NCI-H226 lung
NCI-H23 lung = test system: NCI-H23 lung
NCI-H460 lung = test system: NCI-H460 lung
NCI/ADR-RES ovarian = test system: NCI/ADR-RES ovarian
OVCAR-3 ovarian = test system: OVCAR-3 ovarian
OVCAR-4 ovarian = test system: OVCAR-4 ovarian
OVCAR-5 ovarian = test system: OVCAR-5 ovarian
OVCAR-8 ovarian = test system: OVCAR-8 ovarian
PC-3 prostate = test system: PC-3 prostate
RPMI-8226 leukemia = test system: RPMI-8226 leukemia
RXF 393 renal = test system: RXF 393 renal
SF-268 CNS = test system: SF-268 CNS
SF-295 CNS = test system: SF-295 CNS
SF-539 CNS = test system: SF-539 CNS
SK-MEL-2 melanoma = test system: SK-MEL-2 melanoma
SK-MEL-28 melanoma = test system: SK-MEL-28 melanoma
SK-MEL-5 melanoma = test system: SK-MEL-5 melanoma
SK-OV-3 ovarian = test system: SK-OV-3 ovarian
SN12C renal = test system: SN12C renal
SNB-19 CNS = test system: SNB-19 CNS
SNB-75 CNS = test system: SNB-75 CNS
SW-620 colon = test system: SW-620 colon
T-47D breast = test system: T-47D breast
TK-10 renal = test system: TK-10 renal
U251 CNS = test system: U251 CNS
UACC-257 melanoma = test system: UACC-257 melanoma
UACC-62 melanoma = test system: UACC-62 melanoma
UO-31 renal = test system: UO-31 renal
K-562 leukemia = test system: K-562 leukemia
MOLT-4 leukemia = test system: MOLT-4 leukemia
NCI-H522 lung = test system: NCI-H522 lung
SR leukemia = test system: SR leukemia

SMILES: Cc1nc2c(=O)[nH]c3ccccc3c2o1
- TGI (786-0 renal): > 100 µM
- TGI (A498 renal): > 100 µM
- TGI (A549 NSCLC): > 100 µM
- TGI (ACHN renal): > 100 µM
- TGI (BT-549 breast): > 100 µM
- TGI (CAKI-1 renal): > 100 µM
- TGI (CCRF-CEM leukemia): > 100 µM
- TGI (COLO 205 colon): > 100 µM
- TGI (DU-145 prostate): > 100 µM
- TGI (EKVX NSCLC): > 100 µM
- TGI (HCC-2998 colon): > 100 µM
- TGI (HCT-116 colon): > 100 µM
- TGI (HCT-15 colon): > 100 µM
- TGI (HL-60(TB) leukemia): > 100 µM
- TGI (HOP-62 NSCLC): > 100 µM
- TGI (HOP-92 NSCLC): > 100 µM
- TGI (HS 578T breast): > 100 µM
- TGI (HT29 colon): > 100 µM
- TGI (IGROV1 ovarian): > 100 µM
- TGI (KM12 colon): > 100 µM
- TGI (LOX IMVI melanoma): > 100 µM
- TGI (M14 melanoma): > 100 µM
- TGI (MALME-3M melanoma): > 100 µM
- TGI (MCF7 breast): > 100 µM
- TGI (MDA-MB-231 breast): > 100 µM
- TGI (MDA-MB-435): > 100 µM
- TGI (MDA-N): > 100 µM
- TGI (NCI-H226 lung): > 100 µM
- TGI (NCI-H23 lung): > 100 µM
- TGI (NCI-H460 lung): > 100 µM
- TGI (NCI/ADR-RES ovarian): > 100 µM
- TGI (OVCAR-3 ovarian): > 100 µM
- TGI (OVCAR-4 ovarian): > 100 µM
- TGI (OVCAR-5 ovarian): > 100 µM
- TGI (OVCAR-8 ovarian): > 100 µM
- TGI (PC-3 prostate): > 100 µM
- TGI (RPMI-8226 leukemia): > 100 µM
- TGI (RXF 393 renal): > 100 µM
- TGI (SF-268 CNS): > 100 µM
- TGI (SF-295 CNS): > 100 µM
- TGI (SF-539 CNS): > 100 µM
- TGI (SK-MEL-2 melanoma): > 100 µM
- TGI (SK-MEL-28 melanoma): > 100 µM
- TGI (SK-MEL-5 melanoma): > 100 µM
- TGI (SK-OV-3 ovarian): > 100 µM
- TGI (SN12C renal): > 100 µM
- TGI (SNB-19 CNS): > 100 µM
- TGI (SNB-75 CNS): > 100 µM
- TGI (SW-620 colon): > 100 µM
- TGI (T-47D breast): > 100 µM
- TGI (TK-10 renal): > 100 µM
- TGI (U251 CNS): > 100 µM
- TGI (UACC-257 melanoma): > 100 µM
- TGI (UACC-62 melanoma): > 100 µM
- TGI (UO-31 renal): > 100 µM

SMILES: CN(C)C(=S)N/N=C\C(=N/NC(=S)N(C)C)c1ccccc1
- TGI (786-0 renal): > 100 µM
- TGI (A498 renal): 49.1 µM
- TGI (A549 NSCLC): > 100 µM
- TGI (ACHN renal): > 100 µM
- TGI (BT-549 breast): > 100 µM
- TGI (CAKI-1 renal): > 100 µM
- TGI (COLO 205 colon): > 100 µM
- TGI (DU-145 prostate): > 22.7 µM
- TGI (EKVX NSCLC): > 100 µM
- TGI (HCC-2998 colon): > 100 µM
- TGI (HCT-116 colon): > 46.5 µM
- TGI (HCT-15 colon): > 100 µM
- TGI (HOP-62 NSCLC): > 100 µM
- TGI (HOP-92 NSCLC): 92.1 µM
- TGI (HS 578T breast): > 29.9 µM
- TGI (HT29 colon): > 100 µM
- TGI (IGROV1 ovarian): > 48.2 µM
- TGI (K-562 leukemia): > 100 µM
- TGI (KM12 colon): > 100 µM
- TGI (LOX IMVI melanoma): > 100 µM
- TGI (M14 melanoma): > 100 µM
- TGI (MALME-3M melanoma): > 57.5 µM
- TGI (MCF7 breast): > 38.8 µM
- TGI (MDA-MB-231 breast): > 100 µM
- TGI (MDA-MB-435): > 100 µM
- TGI (MDA-N): > 100 µM
- TGI (MOLT-4 leukemia): > 100 µM
- TGI (NCI-H226 lung): > 30.6 µM
- TGI (NCI-H23 lung): > 45.4 µM
- TGI (NCI-H460 lung): > 100 µM
- TGI (NCI-H522 lung): 9.86 µM
- TGI (NCI/ADR-RES ovarian): > 25.1 µM
- TGI (OVCAR-3 ovarian): > 23.4 µM
- TGI (OVCAR-4 ovarian): > 100 µM
- TGI (OVCAR-5 ovarian): > 100 µM
- TGI (OVCAR-8 ovarian): > 100 µM
- TGI (PC-3 prostate): > 100 µM
- TGI (RPMI-8226 leukemia): > 100 µM
- TGI (RXF 393 renal): > 27.8 µM
- TGI (SF-268 CNS): > 72.3 µM
- TGI (SF-295 CNS): > 100 µM
- TGI (SF-539 CNS): > 100 µM
- TGI (SK-MEL-2 melanoma): > 100 µM
- TGI (SK-MEL-28 melanoma): > 100 µM
- TGI (SK-MEL-5 melanoma): > 100 µM
- TGI (SK-OV-3 ovarian): > 100 µM
- TGI (SN12C renal): > 100 µM
- TGI (SNB-19 CNS): > 100 µM
- TGI (SNB-75 CNS): > 53.7 µM
- TGI (SW-620 colon): > 100 µM
- TGI (T-47D breast): 4.77 µM
- TGI (TK-10 renal): > 100 µM
- TGI (U251 CNS): > 100 µM
- TGI (UACC-257 melanoma): > 100 µM
- TGI (UACC-62 melanoma): > 100 µM
- TGI (UO-31 renal): > 100 µM

SMILES: COC(=O)C1=C(C(=O)OC)SC(=C2c3ccsc3-c3sccc32)S1
- TGI (786-0 renal): 56.8 µM
- TGI (A498 renal): 71.4 µM
- TGI (A549 NSCLC): > 100 µM
- TGI (ACHN renal): > 100 µM
- TGI (BT-549 breast): > 100 µM
- TGI (CAKI-1 renal): > 100 µM
- TGI (CCRF-CEM leukemia): > 100 µM
- TGI (COLO 205 colon): > 100 µM
- TGI (DU-145 prostate): > 100 µM
- TGI (EKVX NSCLC): > 100 µM
- TGI (HCC-2998 colon): > 100 µM
- TGI (HCT-116 colon): > 100 µM
- TGI (HCT-15 colon): > 100 µM
- TGI (HL-60(TB) leukemia): 58.7 µM
- TGI (HOP-62 NSCLC): 55.1 µM
- TGI (HS 578T breast): 52 µM
- TGI (HT29 colon): > 100 µM
- TGI (IGROV1 ovarian): > 100 µM
- TGI (K-562 leukemia): > 100 µM
- TGI (KM12 colon): > 100 µM
- TGI (LOX IMVI melanoma): > 100 µM
- TGI (M14 melanoma): > 100 µM
- TGI (MALME-3M melanoma): > 100 µM
- TGI (MCF7 breast): > 100 µM
- TGI (MDA-MB-231 breast): > 100 µM
- TGI (MDA-MB-435): > 100 µM
- TGI (MDA-N): > 100 µM
- TGI (MOLT-4 leukemia): > 100 µM
- TGI (NCI-H226 lung): > 100 µM
- TGI (NCI-H23 lung): 56.2 µM
- TGI (NCI-H460 lung): > 100 µM
- TGI (NCI/ADR-RES ovarian): > 100 µM
- TGI (OVCAR-3 ovarian): > 100 µM
- TGI (OVCAR-5 ovarian): > 100 µM
- TGI (OVCAR-8 ovarian): > 100 µM
- TGI (PC-3 prostate): > 100 µM
- TGI (RPMI-8226 leukemia): > 100 µM
- TGI (RXF 393 renal): 41.6 µM
- TGI (SF-268 CNS): 57.3 µM
- TGI (SF-295 CNS): 53.5 µM
- TGI (SF-539 CNS): > 100 µM
- TGI (SK-MEL-28 melanoma): > 100 µM
- TGI (SK-MEL-5 melanoma): > 100 µM
- TGI (SK-OV-3 ovarian): 49.3 µM
- TGI (SN12C renal): > 100 µM
- TGI (SNB-19 CNS): > 100 µM
- TGI (SNB-75 CNS): 35.6 µM
- TGI (SR leukemia): > 100 µM
- TGI (SW-620 colon): > 100 µM
- TGI (TK-10 renal): 57.8 µM
- TGI (U251 CNS): 98.5 µM
- TGI (UACC-257 melanoma): > 100 µM
- TGI (UACC-62 melanoma): > 100 µM
- TGI (UO-31 renal): > 100 µM
